Reference: US11793982B2, “Drug delivery devices and methods of fabrication and use therefor” (Purdue Research Foundation, priority 2020, dated 2023)

Key:
[1] = test system: epidermis and subcutaneous muscle on the backside of mice; assay: In vivo tissue compatibility, real-time bioluminescence (luminol) imaging of acute inflammation; details: five hours post-injection
[2] = test system: B16F10 murine melanoma cells; details: cited from earlier work
B16F10 melanoma cells = assay: Murine melanoma model, inhibition of post-surgical residual melanoma; assay type: in vivo, C57BL/6 mice
mice = details: cited from earlier work

Compound | acute inflammation at the implemented sites [1] | half maximal inhibitory concentration (IC50) [2] | mice with significant growth of the tumors (B16F10 melanoma cells; intratumoral syringe injection, single dose 50 μl, n=5, ten days post-inoculation) | local skin lesions (B16F10 melanoma cells; syringe injection) | lethal dose (LD50) (mice)
CCCCCCCCCCCCCC(=O)O[C@@H]1[C@@H](C)[C@@]2(O)[C@@H](C=C(CO)C[C@]3(O)C(=O)C(C)=C[C@@H]23)[C@@H]2C(C)(C)[C@]12OC(C)=O [PMA, phorbol 12-myristate 13-acetate] | acute inflammation appeared | – | – | – | –
COc1cccc2c1C(=O)c1c(O)c3c(c(O)c1C2=O)C[C@@](O)(C(=O)CO)C[C@@H]3O[C@H]1C[C@H](N)[C@H](O)[C@H](C)O1 [DOX, doxorubicin] | – | about 0.3 μg/ml | four out of five mice | local skin lesions were observed | about 192 μg
